Data on 8 molecules can be found in article PMC12757481, “The dihydropyridine LA1011 modulates multiple Hsp90—co-chaperone interactions relevant to Alzheimer’s disease” (Cell Stress & Chaperones, 2025).

The target in data set [1] is T1, Hsp90 (Saccharomyces cerevisiae, UniProt P02829).
T1 construct: made in house
Put plainly: Lactate-dehydrogenase and pyruvate-kinase-linked Hsp90 ATPase assay. The class given is biochemical, yeast. The conditions noted are these: for effect on Hsp90 ATPase activity: 2 μM Hsp90; for effect of LA1011 on the co-chaperone directed regulation of Hsp90 ATPase activity: 2 μM Hsp90, 240 μM LA1011, co-chaperone 0.25 to 30 μM, normalized data compared with control lacking LA1011. How it is done: ATPase assays using 2 μM Hsp90 were conducted as previously described using the lactate-dehydrogenase and pyruvate-kinase-linked assay.[12] Briefly, 240 μM of LA1011 was used in assays as required. Co-chaperones were added to Hsp90 and Hsp90-LA1011 complex at a variety of concentrations ranging from 0.25 to 30 μM. Assays utilizing LA1011 were normalized by recalculating the activity for all data points so that the data points were converted to a percentage of the activity relative to the first data point, which lacked any addition of co-chaperone. The first data point was therefore 100% max Hsp90 activity. All assays were conducted at least in triplicate.
To assess the effect of LA1011 on the mechanistic action of co-chaperones, we used the lactate-dehydrogenase and pyruvate-kinase-linked Hsp90 ATPase assay. We first assessed the effect of each co-chaperone on Hsp90 ATPase activity and then compared its effect on a Hsp90-LA1011 complex.

The target in data set [2] is T2, Hsp90-AMPPNP (Saccharomyces cerevisiae, UniProt P02829).
T2 construct: made in house
T2 sequence (P02829 whole entry): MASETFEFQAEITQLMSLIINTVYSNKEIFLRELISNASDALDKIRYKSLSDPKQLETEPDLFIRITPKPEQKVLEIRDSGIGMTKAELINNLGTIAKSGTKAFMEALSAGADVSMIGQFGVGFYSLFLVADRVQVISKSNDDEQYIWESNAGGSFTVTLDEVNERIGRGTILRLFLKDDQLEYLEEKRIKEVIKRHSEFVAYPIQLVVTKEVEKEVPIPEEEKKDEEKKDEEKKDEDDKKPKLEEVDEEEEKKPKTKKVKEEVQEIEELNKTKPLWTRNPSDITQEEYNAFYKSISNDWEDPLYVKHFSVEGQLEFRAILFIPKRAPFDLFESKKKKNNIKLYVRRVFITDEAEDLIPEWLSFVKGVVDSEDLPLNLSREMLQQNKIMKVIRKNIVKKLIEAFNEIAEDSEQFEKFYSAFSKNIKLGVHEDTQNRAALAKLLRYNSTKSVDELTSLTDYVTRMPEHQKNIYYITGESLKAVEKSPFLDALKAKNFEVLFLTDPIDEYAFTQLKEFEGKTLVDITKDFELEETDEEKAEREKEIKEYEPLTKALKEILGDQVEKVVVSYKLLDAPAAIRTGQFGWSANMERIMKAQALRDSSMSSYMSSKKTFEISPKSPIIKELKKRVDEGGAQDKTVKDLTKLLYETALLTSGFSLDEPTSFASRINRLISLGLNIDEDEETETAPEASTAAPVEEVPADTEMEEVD
Put plainly: ITC, LA1011 binding to Hsp90-AMPPNP. On the set-up: species or system yeast. Particulars: 30 μM Hsp90, 5 mM AMPPNP.
Description: (§1) The heat of interaction was measured on an ITC200 microcalorimeter (Microcal) under the same buffer conditions (20 mM Tris, pH 7.5, containing 5 mM NaCl), except for experiments using PP5, where we omitted EDTA and used 1 μM MnCl2. In experiments using nucleotide, we used 5 mM AMPPNP and 6 mM MgCl2. For experiments using Aha1 with AMPPNP the buffer contained 100 mM NaCl. Similarly, Sgt1 experiments also included 100 mM NaCl in the buffer. […] Heats of dilution were determined by diluting the injectant into the buffer. Data were fitted using a curve-fitting algorithm (Microcal Origin) either as a one-site binding event or as two independent binding sites as required.
(§2) To circumvent this limitation, we can alternatively fit the two sites as equal thermodynamic events, and the Kd value or values(s) returned then act as an indicator for changes in the overall affinity for LA1011 binding. […] Thus, our overall approach is to use a stoichiometry of 1:1 that represents the binding of two LA1011 molecules (because there are two binding sites) per Hsp90 dimer, except where we are confident that the stoichiometry is 2:1 (Hsp90 dimer and one LA1011 molecule). […] Thus, prior to choosing the ITC fitting parameters, we first consider the availability of both LA1011 binding sites for complexes of Hsp90 with its co-chaperone partner. […]

Data set [3] has as its target Hsp90. Details: method as in PMID 29930942. The conditions noted are these: previously measured; cited from earlier work.
The target of data set [4] is T1, Hsp90. Description: ITC, LA1011 binding to nucleotide-free Hsp90. On the set-up: species or system yeast. Particulars: ITC 30 °C, 2 mM LA1011 injected into 30 μM Hsp90.
Description: as §1, §2
In data set [5] the target is Hsp90-HOP (Saccharomyces cerevisiae, UniProt P02829). The conditions noted are these: ITC, 20 μM Hsp90, 40 μM HOP. (In general: Isothermal titration calorimetry measures the heat released or taken up as one component is titrated into another.)
Sequence of Hsp90-HOP (P02829 whole entry): as above
Sequence of Hsp90-HOP (P31948 whole entry partner): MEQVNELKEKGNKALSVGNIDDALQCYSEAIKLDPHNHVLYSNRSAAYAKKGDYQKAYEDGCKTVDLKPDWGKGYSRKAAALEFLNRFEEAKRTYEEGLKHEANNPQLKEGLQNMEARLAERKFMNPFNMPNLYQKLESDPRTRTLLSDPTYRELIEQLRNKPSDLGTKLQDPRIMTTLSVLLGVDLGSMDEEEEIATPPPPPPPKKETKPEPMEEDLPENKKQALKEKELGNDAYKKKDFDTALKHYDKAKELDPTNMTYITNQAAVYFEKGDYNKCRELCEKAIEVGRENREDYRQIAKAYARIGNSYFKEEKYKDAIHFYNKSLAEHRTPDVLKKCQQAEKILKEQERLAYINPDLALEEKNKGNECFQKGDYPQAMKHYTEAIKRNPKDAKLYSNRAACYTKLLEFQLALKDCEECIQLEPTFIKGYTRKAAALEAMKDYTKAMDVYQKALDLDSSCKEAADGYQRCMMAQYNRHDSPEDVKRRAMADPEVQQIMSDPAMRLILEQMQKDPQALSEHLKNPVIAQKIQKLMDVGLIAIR
Description: as §1
(§3) Thus, our overall approach is to use a stoichiometry of 1:1 that represents the binding of two LA1011 molecules (because there are two binding sites) per Hsp90 dimer, except where we are confident that the stoichiometry is 2:1 (Hsp90 dimer and one LA1011 molecule).
Data set [6] addresses T3, Hsp90-Aha1 (Saccharomyces cerevisiae, UniProt P02829).
T3 construct: made in house
Put plainly: ITC, LA1011 binding to nucleotide-free Hsp90-yeast Aha1 complex. The conditions noted are these: 20 μM Hsp90, 40 μM yAha1, nucleotide-free.
Description: as §1, §2

Data set [7] addresses T4, Hsp90-CHIP (Saccharomyces cerevisiae, UniProt P02829).
T4 construct: made in house
Description: ITC, LA1011 binding to Hsp90-mouse CHIP complex. On the set-up: species or system yeast. The conditions noted are these: 20 μM Hsp90, 60 μM CHIP.
Description: as §1, §2

Data set [8] has as its system APPxPS1 AD mouse model. Details: method as in PMID 27163800. The conditions noted are these: APPxPS1 mice, versus untreated mice; cited from earlier work.
Data set [9] concerns the target T5, Hsp90-CDC37 (Saccharomyces cerevisiae, UniProt P02829).
T5 construct: made in house
Description: ITC, LA1011 binding to Hsp90-CDC37 complex. On the set-up: species or system yeast.
Description: as §1, §3

Data set [10] has as its target T6, Hsp90-Sgt1 (Saccharomyces cerevisiae, UniProt P02829).
T6 construct: made in house
Put plainly: ITC, LA1011 binding to Hsp90-Sgt1 complex. Details: species or system yeast. The conditions noted are these: 30 μM Hsp90, 60 μM Sgt1, 100 mM NaCl, 2:1 fit.
Description: as §1, §3

In data set [11] the target is T7, Hsp90-p23-PNP (Saccharomyces cerevisiae, UniProt P02829).
T7 construct: made in house
T7 sequence (P02829 whole entry): as the sequence (P02829 whole entry) above
T7 sequence (P28707 whole entry partner): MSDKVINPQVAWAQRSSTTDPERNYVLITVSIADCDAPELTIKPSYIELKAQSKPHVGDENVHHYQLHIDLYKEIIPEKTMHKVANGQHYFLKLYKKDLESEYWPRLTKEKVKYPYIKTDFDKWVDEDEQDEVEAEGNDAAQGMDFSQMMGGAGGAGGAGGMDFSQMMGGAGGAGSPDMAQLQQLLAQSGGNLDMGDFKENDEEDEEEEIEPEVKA
Put plainly: ITC, LA1011 binding to AMPPNP-Hsp90-p23 complex. On the set-up: species or system yeast. The conditions noted are these: 30 μM Hsp90, 200 μM p23, 5 mM Mg-PNP.
Description: as §1, §2

The target in data set [12] is T8, Hsp90-FKBP52 (Saccharomyces cerevisiae, UniProt P02829).
T8 construct: made in house
Description: ITC, LA1011 binding to Hsp90-FKBP52 complex. Particulars: 30 μM Hsp90, 60 μM FKBP52, 2:1 fit. Details: species or system yeast.
Description: as §1, §3

Data set [13] deals with T9, Hsp90-FKBP51 (Saccharomyces cerevisiae, UniProt P02829).
T9 construct: made in house
Put plainly: ITC, LA1011 binding to Hsp90-FKBP51 complex. Details: species or system yeast. Particulars: 30 μM Hsp90, 60 μM FKBP51, 2:1 fit.
Description: as §1, §3

The target in data set [14] is T10, Hsp90-PNP (Saccharomyces cerevisiae, UniProt P02829).
T10 construct: made in house
T10 sequence (P02829 whole entry): as the sequence (P02829 whole entry) above
Description: ITC, co-chaperone binding to Hsp90-AMPPNP. Details: species or system yeast. The conditions noted are these: 5 mM AMPPNP, no LA1011, for Aha1 the Hsp90-PNP was the injectant.
Description: (§4) The heat of interaction was measured on an ITC200 microcalorimeter (Microcal) under the same buffer conditions (20 mM Tris, pH 7.5, containing 5 mM NaCl), except for experiments using PP5, where we omitted EDTA and used 1 μM MnCl2. In experiments using nucleotide, we used 5 mM AMPPNP and 6 mM MgCl2. For experiments using Aha1 with AMPPNP the buffer contained 100 mM NaCl. Similarly, Sgt1 experiments also included 100 mM NaCl in the buffer. […] To assess co-chaperone binding to Hsp90 and Hsp90-LA1011 complex, we generally injected aliquots of co-chaperone at concentrations ranging from 200 to 400 μM into the microcell containing the Hsp90 or Hsp90-LA1011 complex at concentrations ranging from 20 to 30 μM of Hsp90 or Hsp90 in complex with 2 mM LA1011 at 30 °C. Heats of dilution were determined by diluting the injectant into the buffer. Data were fitted using a curve-fitting algorithm (Microcal Origin) either as a one-site binding event or as two independent binding sites as required.

Data set [15] deals with T11, Hsp90-LA1011-PNP (Saccharomyces cerevisiae, UniProt P02829).
T11 construct: made in house
Description: ITC, co-chaperone binding to Hsp90-AMPPNP-LA1011 complex. Particulars: 5 mM AMPPNP, 2 mM LA1011, for Aha1 the Hsp90-LA1011-PNP was the injectant. Details: species or system yeast.
Description: as §4

For data set [16], the target named is T12, Hsp90-LA1011 (Saccharomyces cerevisiae, UniProt P02829).
T12 construct: made in house
T12 sequence (P02829 whole entry): as above
Put plainly: ITC, co-chaperone binding to Hsp90-LA1011 complex. On the set-up: species or system yeast.
Description: as §4

Data set [17] concerns the target T1, Hsp90. Description: ITC, co-chaperone binding to Hsp90. Details: species or system yeast.
Description: as §4
The mark [18] stands for this setting: ITC 30 °C, Hsp90 in complex with 2 mM LA1011, one-site fit, read-out: Kd.
The mark [19] stands for this setting: ITC 30 °C, co-chaperone and Hsp90 without LA1011, one-site fit, read-out: Kd.

Where two headings read alike, the source gives them in different places.

T1 sequence (P02829 whole entry): as above

In general, Kd refers to the equilibrium constant for the complex coming apart. `COC(=O)C1=C(CCN(C)C)N(C)C(CCN(C)C)=C(C(=O)OC)C1c1ccc(C(F)(F)F)cc1.Cl.Cl` [LA1011, dimethyl 4-(4-Trifluoro-methyl-phenyl)-2,6-bis(2-dimethylamino-ethyl)-1-methyl-1-4 dihydropyridine-3-5-dicarboxylate dihydrochloride]: the “effect on Hsp90 ATPase activity” value in [1] is “activators of Hsp90 ATPase activity”. Moreover, the equilibrium dissociation constant (Kd) in [2] (1:1 fit, read-out: Kd (1:1)) is 58.8 ± 24.2 µM; in data set [2] (2:1 fit, read-out: Kd (2:1)), 73 ± 3.1 µM; in data set [3], 13.5 µM; in data set [4] (1:1 stoichiometric fit, read-out: Kd (1:1)), 19.8 ± 2.2 µM; in [4] (2:1 (Hsp90:LA1011) stoichiometric fit, read-out: Kd (2:1)) it was 28.9 ± 1.7 µM; in data set [5] (read-out: Kd (1:1), 1:1 fit) it was 8.8 ± 1.3 µM. Further, the dissociation constant (Kd) in data set [5] (read-out: Kd (2:1), 2:1 fit) is 8.8 ± 1.3 µM; in data set [6] (1:1 fit, read-out: Kd (1:1)), 118 ± 8 µM; in data set [6] (2:1 fit, read-out: Kd (2:1)), 53.2 ± 5.5 µM; in data set [7] (1:1 fit, read-out: Kd (1:1)) it was 56.2 ± 26.2 µM; in [7] (2:1 fit, read-out: Kd (2:1)), 69 ± 2 µM; in data set [9] (20 μM Hsp90, 40 μM CDC37, 1:1 fit, read-out: Kd (1:1)) it was 4.2 ± 0.8 µM. For the same molecule, the dissociation constant Kd in data set [9] (20 μM Hsp90, 40 μM CDC37, 2:1 fit, read-out: Kd (2:1)) was determined as 9.5 ± 2.5 µM; in data set [10] it was 8.2 ± 1 µM; in [11] (1:1 fit, read-out: Kd (1:1)), 58.8 ± 3.5 µM; in [11] (2:1 fit, read-out: Kd (2:1)), 73 ± 4.5 µM; in [12], 56.2 ± 5.8 µM; in data set [13], 79.4 ± 33.5 µM. Further, the “amyloid-beta (Aβ) plaques” value in data set [8] was “decreases”. Moreover, in data set [8], the dendritic spine density result is “increase in the dendritic spine density”. Moreover, in data set [8], the heat-shock-response result was “co-induction of the heat-shock-response”. Also, in data set [8], the neurofibrillary tangles result is listed as “decreases in neurofibrillary tangles”. Besides, the neuron number result in data set [8] is “increase in neuron number”.

As for “Aha1: yeast Aha1, late-cycle Hsp90 co-chaperone and activator of Hsp90 ATPase activity”, the Kd in data set [14] is 1200 nM; in data set [15], 1.8 µM; in data set [16] (setting [18]) it was 3.3 ± 0.4 µM; in data set [17] (setting [19]), 2400 ± 200 nM. In data set [1], the “effect on Hsp90 ATPase activity” value is “activators of Hsp90 ATPase activity”. Also, the “effect of LA1011 on the co-chaperone directed regulation of Hsp90 ATPase activity” value (shortened to “effect of LA1011”) in [1] is “significantly less Aha1 is required to fully activate Hsp90”.

On to “CDC37: Hsp90 co-chaperone of early complex assembly”, for which the “effect of LA1011” value in data set [1] is given as “unaffected by the presence of LA1011”. The figures for the dissociation constant Kd in [16] (setting [18]) and in data set [17] (setting [19]) were 1.3 µM and 1590 nM, respectively.

As to “HOP: Hsp90 co-chaperone found in early complexes of the chaperone cycle”, the equilibrium dissociation constant (Kd) in [16] (setting [18]) worked out at 0.3 µM; in [17] (setting [19]), 430 nM.

With “Hch1: Hsp90 co-chaperone homologous to the N-terminal domain of Aha1”, the figures for the Kd in [16] (setting [18]) and in data set [17] (setting [19]) were 11.6 µM and 6900 nM, respectively.

On to “PP5: full-length PP5, phosphatase co-chaperone of Hsp90”, for which the dissociation constant (Kd) turned out to be 9.6 µM in data set [16] (ITC, Hsp90 with 2 mM LA1011, two-site fit, value listed first in Table 2 and figures, read-out: Kd (two-site fit, first value listed)); 9.2 µM in [16] (ITC, Hsp90 with 2 mM LA1011, two-site fit, value listed second in Table 2 and figures, read-out: Kd (two-site fit, second value listed)); 640 nM in [17] (ITC, Hsp90 without LA1011, two-site fit, value listed first in Table 2 and figures, read-out: Kd (two-site fit, first value listed)); 160 nM in [17] (ITC, Hsp90 without LA1011, two-site fit, value listed second in Table 2 and figures, read-out: Kd (two-site fit, second value listed)).

On to Sti1: the yeast homolog of human HOP, for which the “effect of LA1011” value in [1] was “unaffected by the presence of LA1011”.

Turning to “p23: Hsp90 co-chaperone that promotes the closed conformation of Hsp90”, the Kd was 4200 nM in data set [14] and 8.9 µM in [15]. For the same molecule, the “effect of LA1011” value in [1] was “unaffected by the presence of LA1011”.
